From article PMC9146984, “A Novel Proline-Rich Cathelicidin from the Alpaca Vicugna pacos with Potency to Combat Antibiotic-Resistant Bacteria: Mechanism of Action and the Functional Role of the C-Terminal Region” (Membranes, 2022)
Converted amounts (≈) assume the structure as drawn. Where two headings read alike, the source gives them in different places. Where a SMILES comes first, the peptide text is derived from it.

Tests used:
[1] = test system: BW25113ΔsbmA with plasmid-borne mutant SbmA bearing the tetrapeptide deletion; format: cell-based, Escherichia coli; conditions: promoter J23119, pUC vector
Description: (§1) The reduction of resazurin to resorufin was measured.
(§2) A plasmid vector for the expression of sfGFP under the strong constitutive artificial promoter J23119 [33] was kindly provided by M.N. Baranova (Figure S2A). This plasmid was used for the preparation of the complementation plasmids overexpressing two SbmA variants in the SbmA-deficient E. coli strain. The plasmids were obtained by ligase-independent cloning procedure. Briefly, DNA parts were produced by PCR-amplification of the vector and target sbmA gene from wild-type E. coli MDR 1057 or VicBac[1–22]-resistant strain (Figure S2B). The DNA fragments purified by gel electrophoresis and having 22–23 bp overhangs were mixed with molar ratios of 2:1 (insert: linearized vector) and were subsequently transformed into chemically competent E. coli DH10B cells. Target plasmids were isolated from individual clones and then analyzed by DNA sequencing.

[2] = test system: BW25113ΔsbmA expressing the control protein sfGFP; format: cell-based, Escherichia coli; conditions: same promoter J23119
Description: as §1, §2

[3] = test system: BW25113ΔsbmA with plasmid-borne wild-type SbmA; format: cell-based, Escherichia coli; conditions: promoter J23119, pUC vector
Description: as §1, §2

E. coli BW25113 ΔsbmA = format: cell-based, Escherichia coli; conditions: Mueller–Hinton broth, 24 h, 37 °C, median
Description: as §1

E. coli BW25113 ΔmdtM = format: cell-based, Escherichia coli; conditions: Mueller–Hinton broth, 24 h, 37 °C, median
Description: as §1

E. coli BW25113 ΔompF = format: cell-based, Escherichia coli; conditions: Mueller–Hinton broth, 24 h, 37 °C, median
Description: as §1

E. coli BW25113 = format: cell-based, Escherichia coli; conditions: BW25113, 24 h
Description: as §1

[4] = test system: human embryonic kidney cells (HEK293T); assay: Cytotoxicity (MTT assay); format: cell-based
Description: Hemolytic activity of the peptides was tested against the fresh suspension of human red blood cells (hRBC) using the hemoglobin release assay as described previously. Two experiments were performed with the hRBC from blood samples of independent donors. The quantitative data were represented as average means with standard deviations. The colorimetric 3-(4,5-dimethylthiazol-2-yl)-2,5-diphenyltetrazolium bromide (MTT) dye reduction assay was used to determine the cytotoxicity of the peptides against transformed human embryonic kidney cells (HEK293T). 10^4 cells per well in Dulbecco’s modified Eagle’s medium (DMEM/F12) supplemented with 10% fetal bovine serum (FBS; Invitrogen, Waltham, MA, USA) were placed into 96-well plates and then cultured in the CO2-incubator (5% CO2, 37 °C). After the media were removed, the peptides were dissolved in 100 µL of the same medium and added to cell cultures at different final concentrations. 20 h later, 20 μL of MTT (5 mg/mL; Sigma, St. Louis, MO, USA) was added to each well, and the plates were incubated for 4 h at 37 °C. Then, the media were discarded and a 100 µL dimethyl sulfoxide-isopropanol mixture at a ratio of 1:1 (v/v) was added to each well to dissolve the crystallized formazan. The absorbance at 570 nm was measured by a microplate reader AF2200 (Eppendorf, Hamburg, Germany). The optical density in the wells containing cells cultured without the peptides was assumed to represent 100% cell viability. Two independent experiments were performed for each peptide.

E. coli MDR 1057 = conditions: selection by VicBac[1–22], stable after three passages without peptide
Description: Resistance induction experiments were performed using the previously described method. Briefly, on day one, the overnight culture of wild-type bacteria was diluted with the 2× MH broth supplemented with 1.8% NaCl to reach a final cell concentration of 10^6 CFU/mL. 50 µL of the obtained bacterial suspension were added to aliquots of 50 µL of the peptide solutions serially diluted with the sterilized 0.1% BSA in 96-well flat-bottom polystyrene microplates. After incubation for 20 ± 2 h at 37 °C and 950 rpm, MICs were determined as described above. For each subsequent daily transfer, 2–4 μL of the inoculum taken from the first well containing a sub-inhibitory drug concentration were diluted with 2 mL of the fresh 2× MH broth supplemented with 1.8% NaCl. […] Bacteria that grew at the highest concentration of AMPs on the final day were passaged a further 3 times on drug-free agar plates before determining the final MIC value.

[5] = test system: VicBac[1–22]-resistant E. coli MDR 1057 strain; conditions: Mueller-Hinton broth supplemented with 0.9% NaCl; strain selected 14 days with VicBac[1-22]; cross-resistance
Description: (§3) Bacterial test cultures were grown in the Mueller-Hinton broth (MH; Sigma, St. Louis, MO, USA) at 37 °C to mid-log phase and then diluted with the 2× MH medium supplemented with 1.8% NaCl or without salt so that to reach a final cell concentration of 10^6 CFU/mL. 50 µL of the obtained bacterial suspension were added to aliquots of 50 µL of the peptide solutions serially diluted with sterilized 0.1% bovine serum albumin (BSA) in 96-well flat-bottom polystyrene microplates (Eppendorf #0030730011, Hamburg, Germany). […] To verify MIC values, the respiratory activity of the bacteria was determined. Briefly, 20 µL of 0.1 mg/mL resazurin (a redox indicator; Sigma, St. Louis, MO, USA) was added to the wells after 24 h of incubation, and the plate was incubated for an additional two hours. The reduction of resazurin to resorufin was measured. […] The results were expressed as the median values determined based on at least three independent experiments performed in triplicate.
(§4) Resistance induction experiments were performed using the previously described method. Briefly, on day one, the overnight culture of wild-type bacteria was diluted with the 2× MH broth supplemented with 1.8% NaCl to reach a final cell concentration of 10^6 CFU/mL. 50 µL of the obtained bacterial suspension were added to aliquots of 50 µL of the peptide solutions serially diluted with the sterilized 0.1% BSA in 96-well flat-bottom polystyrene microplates. After incubation for 20 ± 2 h at 37 °C and 950 rpm, MICs were determined as described above. For each subsequent daily transfer, 2–4 μL of the inoculum taken from the first well containing a sub-inhibitory drug concentration were diluted with 2 mL of the fresh 2× MH broth supplemented with 1.8% NaCl. […] 14 repeated passages in the presence of antimicrobial agents were made for each bacterial strain during the experiment. Bacteria that grew at the highest concentration of AMPs on the final day were passaged a further 3 times on drug-free agar plates before determining the final MIC value.

E. coli MDR CI 1057 = conditions: Mueller-Hinton broth supplemented with 0.9% NaCl
Description: as §3, §4

CC[C@H](C)[C@H](NC(=O)[C@H](CCCNC(=N)N)NC(=O)[C@@H]1CCCN1C(=O)[C@@H]1CCCN1C(=O)[C@@H](NC(=O)[C@H](CCCNC(=N)N)NC(=O)[C@@H]1CCCN1C(=O)[C@H](CCCNC(=N)N)NC(=O)[C@@H]1CCCN1C(=O)[C@@H](NC(=O)[C@H](CCCNC(=N)N)NC(=O)[C@@H]1CCCN1C(=O)[C@H](CCCNC(=N)N)NC(=O)[C@@H]1CCCN1C(=O)[C@H](CC(C)C)NC(=O)[C@H](CCCNC(=N)N)NC(=O)[C@@H]1CCCN1C(=O)[C@H](CCCNC(=N)N)NC(=O)[C@H](CCCNC(=N)N)NC(=O)[C@@H](NC(=O)[C@H](CCCNC(=N)N)NC(=O)[C@@H](N)CCCNC(=N)N)[C@@H](C)CC)C(C)C)[C@@H](C)CC)C(=O)O [VicBac[1-22]] (H-RRIRRPRLPRPRVPRPRIPPRI-OH)
MIC, BW25113ΔsbmA with plasmid-borne mutant SbmA (tetrapeptide deletion) [1]: 8 µM | MIC, control strain BW25113ΔsbmA expressing sfGFP [2]: 8 µM (≈ 22.5 µg/mL) | MIC, BW25113ΔsbmA with plasmid-borne wild-type SbmA [3]: 1 µM | Minimum inhibitory concentration, E. coli strain ΔsbmA (E. coli BW25113 ΔsbmA; 0.9% NaCl: +): 16 µM (≈ 45 µg/mL) | Minimum inhibitory concentration, E. coli strain ΔsbmA (E. coli BW25113 ΔsbmA; 0.9% NaCl: −): 4 µM (≈ 11.2 µg/mL) | Minimum inhibitory concentration, E. coli strain ΔmdtM (E. coli BW25113 ΔmdtM; 0.9% NaCl: +): 2 µM (≈ 5.62 µg/mL) | Minimum inhibitory concentration, E. coli strain ΔmdtM (E. coli BW25113 ΔmdtM; 0.9% NaCl: −): 4 µM (≈ 11.2 µg/mL) | Minimum inhibitory concentration, E. coli strain ΔompF (E. coli BW25113 ΔompF; 0.9% NaCl: +): 8 µM (≈ 22.5 µg/mL) | Minimum inhibitory concentration, E. coli strain ΔompF (E. coli BW25113 ΔompF; 0.9% NaCl: −): 2 µM (≈ 5.62 µg/mL) | Minimum inhibitory concentration, E. coli strain BW25113 (E. coli BW25113): 2 µM (≈ 5.62 µg/mL) | moderate cytotoxic activity against human HEK293T cells [4]: not | MIC value after 10 passages subjected to selection (E. coli MDR 1057): > 128 µM | Minimum inhibitory concentration E.coli MDR 1057 14 days with VicBac [1-22] [5]: > 128 µM | Minimum inhibitory concentration E.coli MDR 1057 14 days w/o AMP (E. coli MDR CI 1057; after 14 passages without antimicrobial agents): 1 µM (≈ 2.81 µg/mL) | Minimum inhibitory concentration E.coli MDR 1057 0 days (E. coli MDR CI 1057; before passages): 1 µM (≈ 2.81 µg/mL)
